Measurements: patent US10011638B2, “PTEN antagonist peptides and methods of using the same” (SHRINERS HOSPITALS FOR CHILDREN, priority 2014, dated 2018)
Like-named read-outs stand apart in the source and are kept apart here.

Experiments:
PTEN = molecular target: T1, PTEN (Homo sapiens, UniProt P60484); assay: PTEN peptide binding assay in COS-7 cells; details: biotinylated peptides 15 μM, 1 hour; ABC-DAB, 405 nm; compared to BioRP
T1 construct: host or cells: COS-7
Method: COS-7 cells were cultured as previously reported (29). Forty-eight hrs after transfection, cells were incubated with purified biotinylated RP or PAPs 1-4 (15 μM) for 1 hour. Following 3 washes with PBS and fixation with 4% formaldehyde, COS-7 cells were incubated in ABC and the PAP binding signals were visualized with ABC-DAB based color reactions. The intensity of reaction color in multiple wells was read with a 96-well plate reader at 405 nm. The binding experiments were carried out in 6-12 replicates.

DRG neurons = assay: Neurite outgrowth of adult DRG neurons on CNS myelin spots; assay type: cell-based, mice; details: chosen from dose-response curve of neurite outgrowth assays of DRGs on CNS myelin
Method: (§1) Neurite outgrowth from neurons was performed in DRG and CGN cultures 1-5 days after growth. For DRG assay on myelin spots, the center of each culture coverslip was spotted with 2 μl of purified CNS myelin (200 μg/ml), which contains a number of axon growth inhibitors (11). DRGs were dissected out from C57BL/6 mice aged 8-10 weeks. After incubation with collagenase and 0.25% trypsin, dissociated DRG neurons were plated onto plastic coverslips in 24-well plates and grown in culture medium as previously reported (25, 48). Primary CGN cultures were prepared from cerebelli of postnatal 7-9 day C57BL/6 mice as reported previously (25, 29).
(§2) After plating, dissociated neurons were treated with vehicle, RP (10 μg/ml), PAP1 (2.5 μg/ml), PAP2 (10 μg/ml), PAP3 ([…]), PAP4 (6.7 μg/ml) and PAP5 (5 μg/ml). The doses of PAPs were chosen based on the dose-response curve obtained from neurite outgrowth assays of DRGs on CNS myelin. Neurons were fixed 5 days (DRGs) or 24 hrs (CGNs) after plating and stained for Tuj1. Images of each culture were captured with a Nikon image collecting system and neurite outgrowth was quantified with Photoshop and NIH image software (25). The total neurite length of DRGs per myelin spot was determined from 5-8 representative experiments. The neurite length of CGNs was measured as previously reported (25, 29). To determine the cellular distribution of PTEN, DRGs were stained with anti-PTEN and anti-Tuj1l antibodies in selected coverslips.

[1] = tested on: mice with T7 dorsal over-hemisection; assay: Locomotor recovery after T7 dorsal over-hemisection SCI (BMS, grid walk, footprint); assay type: in vivo; details: vs RP; for locomotor recovery, BMS scores: s.c. 71 μg/mouse/day, 14 days, 2-5 weeks after SCI
Method: (§3) Adult female C57BL/6 mice (9-10 weeks old) were deeply anesthetized with intramuscular ketamine (100 mg/kg) and intraperitoneal xylazine (15 mg/kg). A complete laminectomy was performed and the dorsal part of the spinal cord was fully exposed at T6 and T7 levels (31). A dorsal over-hemisection (1.0 mm) was performed at T7 with a 30 gauge needle and a pair of microscissors to completely sever dorsal part of the spinal cord as previously reported (29, 31). To study axon growth (FIG. 5-7), mice received daily subcutaneous injections of RP, PAP2 or PAP4 at 71 μg/mouse/day beginning two days after SCI for 14 successive days (29). Mice received BDA tracer injections into the motor cortex 3 weeks after SCI (31).
(§4) Mice were perfused 5 weeks after SCI and the spinal cord blocks around the lesion were processed for 5-HT and CST labeling. In brief, transverse sections (30 μm) 5-7 mm rostral to and caudal to the injury and parasagittal sections 4 mm rostral to and 4 mm caudal to lesion were processed for 5-HT-stained serotonergic fibers and BDA-labeled CST axons. To compare axon number among different groups, 5-HT axons were counted in the spinal cord 0-3.2 mm caudal to the lesion from all parasagittal sections in each animal. To determine functional recovery, locomotion recovery was evaluated during 5 weeks of survival by measuring the BMS two days and per week after SCI, and the grid walk performance and footprint 5 weeks after SCI. For axon quantification and behavioral analysis, 8, 9, and 9 mice were used in the RP, PAP2 and PAP4 groups, respectively.

[2] = tested on: mice with T7 dorsal over-hemisection; assay: Growth of 5-HT and CST fiber tracts after T7 dorsal over-hemisection SCI; assay type: in vivo; details: s.c. 71 μg/mouse/day, 5 weeks after SCI; for density of 5-HT fibers in the spinal cord 5-7 mm caudal to the lesion: 14 days from 2 days after SCI, vs RP; for CST sprouts immediately rostral to the lesion (parasagittal sections) / density of ectopic CST sprouts lateral to the dorsal CST, 5-7 mm rostral to the lesion / growth of CST sprouts caudal to the lesion: 14 days
Method: as §3, §4

CGNs = assay: Neurite outgrowth of cerebellar granular neurons (CGNs) on CNS myelin; assay type: cell-based, mice; details: 24 hrs after plating; myelin 50 μg/ml; compared to vehicle
Method: as §1
as §2, with “To determine the cellular distribution of PTEN, DRGs were stained with anti-PTEN and anti-Tuj1l antibodies in selected coverslips.” left out

SCI rats = details: cited from earlier work

T1 sequence (P60484 whole entry, species assumed): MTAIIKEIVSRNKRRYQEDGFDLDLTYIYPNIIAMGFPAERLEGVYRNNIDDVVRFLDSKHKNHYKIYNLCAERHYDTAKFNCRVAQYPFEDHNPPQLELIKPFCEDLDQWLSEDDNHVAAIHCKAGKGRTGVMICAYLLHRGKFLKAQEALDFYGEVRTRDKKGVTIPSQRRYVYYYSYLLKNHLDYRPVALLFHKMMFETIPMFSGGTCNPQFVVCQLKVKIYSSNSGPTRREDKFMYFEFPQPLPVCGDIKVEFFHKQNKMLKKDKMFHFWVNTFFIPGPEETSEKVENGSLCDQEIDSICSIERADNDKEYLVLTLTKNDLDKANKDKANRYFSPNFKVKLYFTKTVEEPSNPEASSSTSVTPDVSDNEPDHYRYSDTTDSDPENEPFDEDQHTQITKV

Substance | peptide binding to COS-7 cells transfected with PTEN (PTEN) | Optimal dose (DRG neurons) [µg/mL] | locomotor recovery, BMS scores [1] | density of 5-HT fibers in the spinal cord 5-7 mm caudal to the lesion [2] | CST sprouts immediately rostral to the lesion (parasagittal sections) [2] | density of ectopic CST sprouts lateral to the dorsal CST, 5-7 mm rostral to the lesion [2] | growth of CST sprouts caudal to the lesion [2] | other results
IHCKAGKGRTGVMIC [PAP3] | higher binding affinity than PAP2 | 5 | – | – | – | – | – | –
KHKNHYKIYNLCAE [PAP2] | – | 10 | improve locomotor recovery | significantly increased | higher density | Increased density | A small number of CST sprouts grew into the distal spinal cord | –
MTAIIKEIVSRNKRR [PAP1] | higher binding affinity than PAP2 | 2.5 | – | – | – | – | – | –
PENEPFDEDQHSQITKV [PAP5] | – | 5 | – | – | – | – | – | neurite length of CGNs cultured on CNS myelin (CGNs): but not with PAP5, significantly increased
TVEEPSNPEASSSTSVTPD [PAP4] | higher binding affinity than PAP2 | 5 | improve locomotor recovery | significantly increased | very high density | Increased density | terminated rostral to the lesion epicenter | stride length of the hindpaws ([1]; footprints 5 weeks after injury): enhanced stride length
bisperoxovanadium [bpV] | – | – | – | – | – | – | – | functional recovery (SCI rats; intrathecal): improved functional recovery; functional recovery (SCI rats; systemic): improved functional recovery; levels of phosphorylated Akt and S6 in the lesioned spinal cord (SCI rats; systemic): elevated the levels of phosphorylated Akt and S6
